Data taken from ChEMBL document CHEMBL4138079, “New cycloartane type-triterpenoids from the areal parts of Caragana sukiensis and their biological activities” (Eur J Med Chem, 2017).

Legend:
[1] = tested on: Spodoptera litura; experiment: Antifeedant activity in Spodoptera litura third-instar larvae assessed as increase in feeding deterrence after 24 hrs by leaf disk method; format: functional
[2] = tested on: Spodoptera litura; experiment: Antifeedant activity in Spodoptera litura assessed as pupal weight after 24 hrs by leaf disk method (reference value: 0.245 +/- 0.02 g); format: functional
[3] = tested on: Spodoptera litura; experiment: Antifeedant activity in Spodoptera litura third-instar larvae assessed as larval duration time after 24 hrs by leaf disk method (reference value: 10.1 +/- 0.1 day); format: functional
[4] = tested on: DU-145; experiment: Cytotoxicity against human DU145 cells assessed as reduction in cell viability after 48 hrs by MTT assay; format: functional, cell-based; details: DU-145, 48 h
[5] = tested on: Spodoptera litura; experiment: Insecticidal activity in Spodoptera litura third-instar larvae assessed as larval mortality at 5 ug/cm2 after 24 hrs by leaf disk method relative to control; format: functional; details: foliar
[6] = tested on: Spodoptera litura; experiment: Antifeedant activity in Spodoptera litura assessed as pupal mortality after 24 hrs by leaf disk method (reference value: 0%); format: functional
[7] = tested on: Spodoptera litura; experiment: Antifeedant activity in Spodoptera litura third-instar larvae assessed as increase in feeding deterrence by measuring antifeedant index at 5 ug/cm2 after 24 hrs by leaf disk method; format: functional
[8] = tested on: HEK293; experiment: Cytotoxicity against human HEK293 cells assessed as reduction in cell viability after 48 hrs by MTT assay; format: cell-based; details: HEK293, 48 h
[9] = tested on: HeLa; experiment: Cytotoxicity against human HeLa cells assessed as reduction in cell viability after 48 hrs by MTT assay; format: functional, cell-based
[10] = tested on: MCF7; experiment: Cytotoxicity against human MCF7 cells assessed as reduction in cell viability after 48 hrs by MTT assay; format: functional, cell-based; details: MCF7, 48 h
[11] = tested on: A549; experiment: Cytotoxicity against human A549 cells assessed as reduction in cell viability after 48 hrs by MTT assay; format: functional, cell-based; details: A549, 48 h
[12] = tested on: Spodoptera litura; experiment: Toxicity in Spodoptera litura third-instar larvae assessed as increase in larval mortality after 24 hrs by leaf disk method; format: organism-based; details: in vivo
[13] = tested on: Spodoptera litura; experiment: Insecticidal activity in Spodoptera litura third-instar larvae assessed as increase in larval mortality at 2.8 ug/cm2 after 24 hrs by leaf disk method relative to control; format: functional; details: foliar
[14] = tested on: Spodoptera litura; experiment: Antifeedant activity in Spodoptera litura third-instar larvae assessed as increase in feeding deterrence by measuring antifeedant index at 2.8 ug/cm2 after 24 hrs by leaf disk method; format: functional

Compound | ED50 [1] [microg/cm2] | Activity [2] [g] | Time [3] [days] | IC50 [4] [µM] | mortality at 5 µg/cm2 [5] [%] | mortality [6] [%] | Activity_index [7] | IC50 [8] [µM] | IC50 [9] [µM] | IC50 [10] [µM] | IC50 [11] [µM] | LD50 [12] [microg/cm2] | mortality at 2.8 µg/cm2 [13] [%] | Activity_index [14]
CC(=O)O[C@H]1[C@H](O[C@H]2CC[C@]34C[C@]35CC[C@]3(C)[C@@H]([C@@]6(C)CC[C@@H](C(C)(C)O)O6)[C@@H](O)C[C@@]3(C)[C@@H]5C[C@H](O)[C@H]4C2(C)C)OC[C@@H](O)[C@@H]1O | 1.689 | 0.219 | 13.4 | 11.3 | 19.3 | 90.1 | 64.1 | 121 | 9.71 | 2.93 | 2.24 |  |  | 
CC1(C)CC[C@]2(C)CC[C@]3(C)C(=CC[C@@H]4[C@@]5(C)CC[C@H](O)C(C)(C)[C@@H]5CC[C@]43C)[C@@H]2C1 [beta-AMYRIN] | 28.69 | 0.232 | 11.5 | 27.9 | 10.9 | 89.9 | 59.4 | 94.4 | 27.9 | 35.3 | 23.6 |  |  | 
C[C@@H]1C[C@H]([C@H](O)C(C)(C)O)O[C@H]2OC(=O)[C@@]3(C)[C@@H]4CC[C@H]5C(C)(C)C(=O)C=C[C@@]56C[C@@]46CC[C@]3(C)[C@H]21 | 12.239 | 0.226 | 11.9 | 36.1 | 11.3 | 91.3 | 61.2 | 158 | 63.3 | 27.2 | 29.4 |  |  | 
C[C@@H]1C[C@H]([C@H](O)C(C)(C)O)O[C@H]2OC(=O)[C@@]3(C)[C@@H]4CC[C@H]5C(C)(C)C(=O)CC[C@@]56C[C@@]46CC[C@]3(C)[C@H]21 | 0.67 |  |  | 22.4 | 94.6 |  | 93.6 | 79.3 | 17.8 | 24.8 | 16.3 | 0.91 |  | 
CC(C)(O)[C@@H]1CC[C@](C)([C@H]2[C@@H](O)C[C@@]3(C)[C@@H]4C[C@H](O)[C@H]5C(C)(C)[C@@H](O[C@@H]6OC[C@@H](O)[C@H](O)[C@H]6O)CC[C@@]56C[C@@]46CC[C@]23C)O1 | 15.05 | 0.212 | 13.4 | 19.6 | 18.2 | 90.9 | 70.1 | 99.4 | 17.4 | 31.2 | 29 |  |  | 
C/C=C(\C)C(=O)O[C@H]1C[C@@H](OC(C)=O)[C@@]2(C(=O)OC)CO[C@H]3[C@@H](O)[C@@](C)([C@]45O[C@@]4(C)[C@H]4C[C@@H]5O[C@@H]5OC=C[C@@]54O)[C@H]4[C@]1(CO[C@]4(O)C(=O)OC)[C@@H]32 [AZADIRACTIN] | 1.8 |  |  |  |  |  |  |  |  |  |  | 0.84 | 100 | 99.1
CC1(C)C[C@@H](O)[C@]2(C)CC[C@]3(C)C(=CC[C@@H]4[C@@]5(C)CCC(=O)[C@](C)(CO)[C@@H]5CC[C@]43C)[C@@H]2C1 |  | 0.249 | 11.1 | 26 | 0 | 11.2 | 21.8 | 95.6 | 18.6 | 28.7 | 21.2 |  |  | 
C[C@@H]1C[C@H]([C@H](O)C(C)(C)O)O[C@H]2O[C@H](O)[C@@]3(C)[C@@H]4CC[C@H]5C(C)(C)[C@@H](O)CC[C@@]56C[C@@]46CC[C@]3(C)[C@H]21 | 0.59 |  |  | 62.1 | 86.7 |  | 91.8 | 123 | 63.8 | 58.2 | 51.1 | 0.84 |  | 
CC1(C)C[C@@H](O)[C@]2(C)CC[C@]3(C)C(=CC[C@@H]4[C@@]5(C)CC[C@H](O)[C@](C)(CO)[C@@H]5CC[C@]43C)[C@@H]2C1 [SOYASAPOGENOL B] | 5.22 | 0.251 | 12.1 | 10.9 | 11.6 | 96.7 | 68.1 | 124 | 3.49 | 2.33 | 2.1 |  |  | 
COc1cccc2c1C(=O)c1c(O)c3c(c(O)c1C2=O)C[C@@](O)(C(=O)CO)C[C@@H]3O[C@H]1C[C@H](N)[C@H](O)[C@H](C)O1 [DOXORUBICIN] |  |  |  | 1.62 |  |  |  |  | 1.09 |  | 1.95 |  |  | 
C[C@@H]1C[C@H]([C@H](O)C(C)(C)O)O[C@H]2O[C@H](O)[C@@]3(C)[C@@H]4CC[C@H]5C(C)(C)C(=O)CC[C@@]56C[C@@]46CC[C@]3(C)[C@H]21 | 1.195 | 0.221 | 12.6 | 53.7 | 11.5 | 88.5 | 56.4 | 167 | 55.3 | 38.9 | 36.7 |  |  | 
C[C@@H]1C[C@H]([C@H](O)C(C)(C)O)O[C@H]2O[C@H](O)[C@@]3(C)[C@@H]4CC[C@H]5C(C)(C)[C@@H](O[C@@H]6OC[C@@H](O)[C@H](O)[C@H]6O)CC[C@@]56C[C@@]46CC[C@]3(C)[C@H]21 | 3.61 | 0.264 | 11.8 | 59.2 | 19.4 | 92.4 | 59.3 | 79.2 | 57 | 43.2 | 37.5 |  |  | 
